# Measured values from patent US12357711B2, “PSMA binding dual mode radiotracer and therapeutic” (Technische Universität München, priority 2019, dated 2025).
# Several values for one entry are separate records, joined by “and”; a condition that tells them apart may be missing. Equal values may be shown once. Read-outs that look alike come from different tables or passages of the source.
# Columns and labels:
# human serum albumin = molecular target: T1, human serum albumin (Homo sapiens, UniProt P02768); assay: HSA binding on Chiralpak HSA column; assay type: in vitro ADME; details: Chiralpak HSA column (50 × 3 mm, 5 μm)
# T1 construct: purchased H13H-2433
# [1] = system: LNCaP tumor-bearing SCID mice; assay: Biodistribution at 1 h p.i. with competition (co-injected PMPA); assay type: in vivo; details: co-injected with PMPA (8 mg/kg)
# Experimental: FIG. 11: Biodistribution [% ID/g] of ^18F-rhPSMAs co-injected with PMPA (8 mg/kg) at 1 h p.i in LNCaP tumor-bearing SCID mice. Data are expressed as mean±SD (n=3).
# [2] = system: LNCaP tumor bearing mouse; assay: Radio-HPLC quantification of relative changes of each rhPSMA7 isomer after [18F]rhPSMA7-rac, 30 min p.i.; assay type: in vivo, mice; details: blood, liver, kidney, urine, 30 min p.i. of [18F][natGa]rhPSMA7-rac
# Experimental: Analytical reversed-phase high pressure chromatography (RP-HPLC) were performed using Shimadzu gradient systems (Shimadzu Deutschland GmbH, Neufahrn, Germany), equipped with a SPD-20A UV/Vis detector (220 nm, 254 nm). […] Eluents for all HPLC operations were water (solvent A) and acetonitrile (solvent B), both containing 0.1% trifluoroacetic acid. […] The gradient for all HPLC operations was: 5% B isocratic 0-3 min, 25-35% B 3-43 min, 95-95% B 43-48 min.
# In order to quantify the relative uptake of each isomer (rhPSMA-7.1-7.4), a tumor-bearing male CB-17-SCID mouse was injected with the racemic mixture of rhPSMA-7 (180-280 MBq, SA=247-349 GBq/μmol, produced at the Klinikum rechts der Isar in a fully automated procedure). […] The eluate was diluted with water and analysed by radio-HPLC. […]
# Tumour and kidneys were separately homogenised in the tissue homogeniser with 1 mL of extraction buffer (850 μL 1 M HEPES pH7.4, 100 μL 20 mM PMPA and 100 μL 1M NaCl) for 30 min. […] The eluate of each organ was diluted with water and analysed by radio-HPLC.
# The organs (tumour, kidney, liver) were separately homogenised in a 2 mL tube together with 3 grinding balls (3 mm diameter) and 1 mL of extraction buffer (850 μL 1 M HEPES pH7.4, 100 μL 20 mM PMPA and 100 μL 1M NaCl) for 10 min at 30 Hz. […] The eluate of each organ was diluted with water and analysed by radio-HPLC. […]
# [3] = system: LNCaP tumor-bearing SCID mice; assay: Biodistribution at 1 h p.i.; assay type: in vivo
# Experimental: FIG. 10: Biodistribution (in % ID/g) of ^18E-labeled rhPSMA tracers at 1 h p.i in LNCaP tumor-bearing SCID mice. Data are expressed as mean±SD (n=4 for rhPSMA7.1, n=5 for 7.2, n=4 for 7.3, n=5 for 7.4 and n=3 for 7-rac).
# [4] = system: PSMA-positive LNCaP cells; assay: Internalization in LNCaP cells, normalized to ([125I]I-BA)KuE; assay type: cell-based; details: LNCaP cells, 1 hour, 37° C.
# Experimental: Data is corrected for non-specific binding ([…]) and expressed as mean±SD (n=3).
# Subsequent to the removal of the culture medium, the cells were washed once with 500 μL DMEM-F12 (5% BSA) and left to equilibrate for at least 15 min at 37° C. in 200 μL DMEM-F12 (5% BSA). Each well was treated with either 25 μL of either DMEM-F12 (5% BSA) or a 100 μM PMPA solution for blockade. Next, 25 μL of the ^68Ga/^18F-labeled PSMA inhibitor (5.0 nM) was added and the cells incubated at 37° C. for 60 min. The experiment was terminated by placing the 24-well plate on ice for 3 min and consecutive removal of the medium. Each well was rinsed with 250 μL HBSS and the fractions from these first two steps combined, representing the amount of free radioligand. Removal of surface bound activity was accomplished by incubation of the cells with 250 μL of ice-cold PMPA (10 μM in PBS) solution for 5 min and rinsed again with another 250 μL of ice-cold PBS. The internalized activity was determined by incubation of the cells in 250 μL 1 M NaOH and the combination with the fraction of a subsequent wash step with 250 μL 1.0 M NaOH. Each experiment (control and blockade) was performed in triplicate. Free, surface bound and internalized activity was quantified in a γ-counter. […] Data were corrected for non-specific internalization and normalized to the specific-internalization observed for the radioiodinated reference compound.
# PSMA = molecular target: T2, PSMA (Homo sapiens, UniProt Q04609); assay: Determination of IC50: PSMA affinity, competitive binding on LNCaP cells against ([125I]I-BA)KuE; details: LNCaP cells, [125I]IB-KuE c=0.2 nM, 1 h, 4° C.
# T2 construct: endogenous in cells; host or cells: LNCaP cells
# Experimental: Data are expressed as mean±SD (n=3, in 3 different experiments).
# After removal of the culture medium, the cells were treated once with 500 μL of HBSS (Hank's balanced salt solution, Biochrom, Berlin, Germany, with addition of 1% bovine serum albumin (BSA)) and left 15 min on ice for equilibration in 200 μL HBSS (1% BSA). […] Quantification of bound and free radioligand was accomplished in a γ-counter.
# T2 sequence (Q04609 whole entry): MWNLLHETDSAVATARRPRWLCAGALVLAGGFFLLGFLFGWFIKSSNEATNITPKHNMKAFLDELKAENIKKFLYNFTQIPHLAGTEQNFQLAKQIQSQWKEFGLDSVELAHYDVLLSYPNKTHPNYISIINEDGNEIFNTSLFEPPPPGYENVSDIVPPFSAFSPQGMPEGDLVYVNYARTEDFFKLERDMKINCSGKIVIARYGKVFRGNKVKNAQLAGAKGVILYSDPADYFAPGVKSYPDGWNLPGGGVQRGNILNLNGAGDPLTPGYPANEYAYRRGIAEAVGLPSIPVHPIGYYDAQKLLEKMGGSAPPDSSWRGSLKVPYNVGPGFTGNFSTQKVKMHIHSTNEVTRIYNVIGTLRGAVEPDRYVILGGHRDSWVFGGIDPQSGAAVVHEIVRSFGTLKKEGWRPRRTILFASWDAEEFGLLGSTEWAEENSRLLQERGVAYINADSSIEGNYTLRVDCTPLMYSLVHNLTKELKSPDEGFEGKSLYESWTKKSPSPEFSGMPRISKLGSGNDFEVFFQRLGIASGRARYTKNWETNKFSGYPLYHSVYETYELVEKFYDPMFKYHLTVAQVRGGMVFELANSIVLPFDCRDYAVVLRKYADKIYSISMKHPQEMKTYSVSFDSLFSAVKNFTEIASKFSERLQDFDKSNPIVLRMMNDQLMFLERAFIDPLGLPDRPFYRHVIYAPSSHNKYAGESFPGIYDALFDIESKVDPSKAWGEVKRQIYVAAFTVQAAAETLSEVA
# T1 sequence (P02768 25-609): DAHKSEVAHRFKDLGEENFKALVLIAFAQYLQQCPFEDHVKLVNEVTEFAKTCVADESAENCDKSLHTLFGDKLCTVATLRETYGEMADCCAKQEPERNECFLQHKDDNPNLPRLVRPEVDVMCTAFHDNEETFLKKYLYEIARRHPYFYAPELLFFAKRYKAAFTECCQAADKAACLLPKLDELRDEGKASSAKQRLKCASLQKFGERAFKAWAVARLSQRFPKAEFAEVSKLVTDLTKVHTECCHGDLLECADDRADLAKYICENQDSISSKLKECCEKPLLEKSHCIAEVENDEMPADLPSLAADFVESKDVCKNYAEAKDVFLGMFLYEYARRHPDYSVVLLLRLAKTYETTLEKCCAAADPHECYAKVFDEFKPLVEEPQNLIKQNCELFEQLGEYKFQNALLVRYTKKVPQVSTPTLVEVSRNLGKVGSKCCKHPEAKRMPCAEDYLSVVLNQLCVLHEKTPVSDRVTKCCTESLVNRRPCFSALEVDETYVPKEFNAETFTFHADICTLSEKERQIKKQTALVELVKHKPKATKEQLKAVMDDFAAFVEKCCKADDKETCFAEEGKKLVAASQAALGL
smiles,measurement,setting,value
"CC(C)(C)[Si](F)(c1ccc(C(=O)NC[C@@H](NC(=O)CC[C@H](C(=O)O)N2CCN(CC(=O)[O-])CCN(CC(=O)[O-])CCN(CC(=O)[O-])CC2)C(=O)N[C@H](CCCCNC(=O)CCC(=O)NCCC[C@@H](NC(=O)CC[C@H](NC(=O)N[C@@H](CCC(=O)O)C(=O)O)C(=O)O)C(=O)O)C(=O)O)cc1)C(C)(C)C.[Ga+3] [rhPSMA7.1, [^19F][^natGa]D-Dap-R-DOTAGA-rhPSMA7]",HSA Binding,human serum albumin,97.7%
same,Biodistribution adrenals,[1],0.003 ± 0.004 % ID/g
same,Biodistribution blood,[1],0.86 ± 0.40 % ID/g
same,Biodistribution bone,[1],0.33 ± 0.24 % ID/g
same,Biodistribution heart,[1],0.37 ± 0.16 % ID/g
same,Biodistribution intestine,[1],0.66 ± 0.32 % ID/g
same,Biodistribution kidneys,[1],10.9 ± 2.5 % ID/g
same,Biodistribution liver,[1],0.43 ± 0.07 % ID/g
same,Biodistribution lung,[1],0.85 ± 0.29 % ID/g
same,Biodistribution muscle,[1],0.17 ± 0.15 % ID/g
same,Biodistribution pancreas,[1],0.16 ± 0.10 % ID/g
same,Biodistribution spleen,[1],0.21 ± 0.08 % ID/g
same,Biodistribution stomach,[1],0.97 ± 0.81 % ID/g
same,Biodistribution tumor,[1]; LNCaP tumor,0.94 ± 0.22 % ID/g
same,percentage change of isomer in sample with respect to its proportion in the injected solution,[2],largest positive percentage change
same,Biodistribution adrenals,[3],2.0 ± 0.25 % ID/g
same,Biodistribution blood,[3],0.53 ± 0.13 % ID/g
same,Biodistribution bone,[3],0.50 ± 0.31 % ID/g
same,Biodistribution heart,[3],0.53 ± 0.03 % ID/g
same,Biodistribution intestine,[3],0.30 ± 0.16 % ID/g
same,Biodistribution kidneys,[3],220 ± 24.8 % ID/g
same,Biodistribution liver,[3],0.75 ± 0.62 % ID/g
same,Biodistribution lung,[3],1.1 ± 0.21 % ID/g
same,Biodistribution muscle,[3],0.32 ± 0.30 % ID/g
same,Biodistribution pancreas,[3],0.45 ± 0.12 % ID/g
same,Biodistribution spleen,[3],20.0 ± 4.2 % ID/g
same,Biodistribution stomach,[3],0.28 ± 0.17 % ID/g
same,Biodistribution tumor,[3]; LNCaP tumor,14.1 ± 4.1 % ID/g
same,individual internalization rates,"[4]; c=0.5 nM, single measurements",77.5 % of [^125I]IB-KuE and 61.8 % of [^125I]IB-KuE and 70.6 % of [^125I]IB-KuE and 68.0 % of [^125I]IB-KuE and 67.9 % of [^125I]IB-KuE and 71.5 % of [^125I]IB-KuE
same,internalization rate Mean,[4]; mean,69.55 % of [^125I]IB-KuE
same,IC50,"PSMA; HBSS+1% BSA, single measurements, read-out: individual IC50 measurements",5.04 nM and 7.11 nM and 8.31 nM and 4.97 nM and 6.44 nM and 8.74 nM and 6.91 nM and 7.27 nM
same,IC50,"PSMA; mean of individual measurements, read-out: IC50 Mean",6.85 nM
